Test results from ChEMBL document CHEMBL6083268, “Discovery of BAY 2413555, First Selective Positive Allosteric Modulator of the M2 Receptor to Restore Cardiac Autonomic Balance” (J Med Chem, 2024).
Values after ≈ are worked out from the molar mass of the structure shown.

How the values were obtained:
[1] = Oral bioavailability in Wistar rat at 1 mg/kg by LC-MS analysis; format: ADME, organism-based; conditions: in vivo
[2] = Volume of distribution at steady state in Wistar rat at 0.3 mg/kg, iv administered as bolus dose by LC-MS analysis; format: ADME, organism-based; conditions: in vivo, read-out: Vdss
[3] = Fraction unbound in human plasma; format: ADME, cell-free
[4] = Efflux ratio of apparent permeability across basal to apical membrane over apical to basal membrane in human Caco-2 cells at 2 uM measured after 2 hrs by LC-MS/MS analysis
[5] = Fraction unbound in rat plasma; format: ADME, cell-free
[6] = Solubility of the compound in PBS buffer at pH 6.5 measured after 24 hrs by LC-MS/MS analysis; format: physicochemical
[7] = Apparent permeability of the compound across apical to basolateral sides in human Caco-2 cells at 2 uM measured after 2 hrs by LC-MS/MS analysis; format: ADME, cell-based
[8] = Half-life in Wistar rat at 0.3 mg/kg, iv administered as bolus dose by LC-MS analysis; format: ADME, organism-based; conditions: in vivo
[9] = Blood clearance in Wistar rat at 0.3 mg/kg, iv administered as bolus dose by LC-MS analysis; format: ADME, organism-based
[10] = Intrinsic clearance in rat hepatocytes measured for 90 mins by LC-MS/MS analysis; format: ADME, cell-based, Hepatocyte; conditions: read-out: CLH (converted)
[11] = molecular target: T1, Muscarinic acetylcholine receptor M2 (Homo sapiens, UniProt P08172); experiment: Displacement of [3H]7-[(3R,4R)-3,4-Dihydroxypyrrolidin-1-yl]-6-fluoro-4-oxo-N-[3,3,4,4,4-pentafluorobutan-2-yl]-1-(2,4,6-trifluorophenyl)-1,4-dihydro-1,8-naphthyridine-3-carboxamide from human M2 muscarinic acetylcholine receptor expressed in CHO-S cells in presence of acetylcholine by competitive radioligand binding assay; format: cell-based
T1 sequence (P08172 whole entry): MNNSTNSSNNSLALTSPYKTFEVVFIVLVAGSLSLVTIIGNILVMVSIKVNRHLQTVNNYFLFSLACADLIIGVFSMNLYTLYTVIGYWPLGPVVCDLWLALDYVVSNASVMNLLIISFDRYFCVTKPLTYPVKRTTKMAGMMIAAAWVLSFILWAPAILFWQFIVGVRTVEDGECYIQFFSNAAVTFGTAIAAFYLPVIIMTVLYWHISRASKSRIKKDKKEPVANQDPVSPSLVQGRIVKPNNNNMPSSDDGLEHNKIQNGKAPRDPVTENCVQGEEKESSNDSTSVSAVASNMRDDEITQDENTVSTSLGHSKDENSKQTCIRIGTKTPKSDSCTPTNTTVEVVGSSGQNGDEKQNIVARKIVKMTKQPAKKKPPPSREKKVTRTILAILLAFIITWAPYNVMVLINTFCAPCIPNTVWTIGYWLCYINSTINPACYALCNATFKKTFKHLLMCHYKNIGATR

[12] = molecular target: T1, Muscarinic acetylcholine receptor M2
Description: Positive allosteric modulator activity at human M2 receptor co-expressing mouse GIRK1 and rat GIRK4 subunits in CHO-DUKX cells assessed as changes in acetylcholine-induced membrane potential hyperpolarization by FLIPR analysis

[13] = Half life in Wistar rat at 1 mg/kg, po by LC-MS/MS analysis; format: ADME, organism-based; conditions: in vivo
[14] = Tmax in Wistar rat at 1 mg/kg, po by LC-MS/MS analysis; format: ADME, organism-based; conditions: in vivo

Compound	Vd [2]	solubility at 24 h [6]	Papp A→B at 2 h, 2 µM [7]	half-life [8]	clearance [9]	predicted hepatic blood clearance at […] [10]	other results
CC[C@@H](NC(=O)c1cn(-c2c(F)cccc2F)c2nc(N3C[C@@H](O)CC3=O)ccc2c1=O)C(F)(F)F	1.7 L/kg	2.9 µg/mL (≈ 5.68 µM)	48.2 ×10⁻⁶ cm/s	1.2 h	21.7 mL/min/kg	21.7 mL/min/kg	bioavailability [1]: 29%; fraction unbound [3]: 0.023; efflux ratio at 2 h, 2 µM [4]: 0.8; fraction unbound [5]: 0.009
CN(C)c1ccc2c(=O)c(C(=O)NC34CC5CC(CC(C5)C3)C4)cn(-c3ccc(F)cc3F)c2n1						41.7 mL/min/kg	
CC[C@H](NC(=O)c1cn(-c2ncc(F)cc2F)c2nc(N3C[C@@H](O)CC3=O)ccc2c1=O)C(F)(F)F		1.8 µg/mL (≈ 3.52 µM)				6.67 mL/min/kg	
CC[C@@H](NC(=O)c1cn(-c2c(Cl)cc(F)cc2Cl)c2nc(N3C[C@@H](O)CC3=O)ccc2c1=O)C(F)(F)F		< 0.1 µg/mL				31.7 mL/min/kg	
O=C(NC1(C(F)(F)F)CCC1)c1cn(-c2c(F)cc(F)cc2F)c2nc(N3C[C@@H](O)[C@H](O)C3)ccc2c1=O		0.9 µg/mL (≈ 1.66 µM)				58.3 mL/min/kg	
CC[C@@H](NC(=O)c1cn(-c2ccccc2Cl)c2nc(N3C[C@@H](O)CC3=O)ccc2c1=O)C(F)(F)F		0.3 µg/mL (≈ 0.59 µM)				43.3 mL/min/kg	
CC[C@@H](NC(=O)c1cn(-c2ccc(F)cc2F)c2nc(N3C[C@@H](O)CC3=O)ccc2c1=O)C(F)(F)F	0.8 L/kg	1.9 µg/mL (≈ 3.72 µM)	45.6 ×10⁻⁶ cm/s	0.8 h	26.7 mL/min/kg	22.7 mL/min/kg	bioavailability [1]: 29%; efflux ratio at 2 h, 2 µM [4]: 0.9; fraction unbound [5]: 0.008
CCC(NC(=O)c1cn(-c2c(F)cc(F)cc2F)c2nc(N3C[C@@H](O)[C@H](O)C3)ccc2c1=O)C(F)(F)C(F)(F)F (single isomer, unassigned; diastereomer 1)	1.2 L/kg	62 µg/mL (≈ 107 µM)	8.3 ×10⁻⁶ cm/s	2.1 h	8.33 mL/min/kg	33.3 mL/min/kg	bioavailability [1]: 22%; fraction unbound [3]: 0.018; fraction unbound [5]: 0.013
CC(C)(C)C(NC(=O)c1cn(-c2c(F)cc(F)cc2F)c2nc(N3C[C@@H](O)[C@H](O)C3)c(F)cc2c1=O)C(F)(F)C(F)(F)F (single isomer, unassigned; diastereomer 2)		0.4 µg/mL (≈ 0.638 µM)	6 ×10⁻⁶ cm/s			51.7 mL/min/kg	
COc1nc2sc(C(=O)NC3CC3)c(N)c2c(C)c1Cl							Ki [11]: 3000 nM; EC50 [12]: 2400 nM
O=C(NC1(C(F)(F)F)CCCC1)c1cn(-c2c(F)cc(F)cc2F)c2nc(N3C[C@@H](O)[C@H](O)C3)ccc2c1=O						60 mL/min/kg	
O=C(NC12CC3CC(CC(C3)C1)C2)c1cn(-c2ccc(F)cc2F)c2nc(N3CCCC3)ccc2c1=O						50 mL/min/kg	
CC(C)(C)[C@H](NC(=O)c1cn(-c2c(F)cc(F)cc2F)c2nc(N3C[C@@H](O)[C@H](O)C3)ccc2c1=O)C(F)(F)F		1.4 µg/mL (≈ 2.51 µM)				41.7 mL/min/kg	
CC[C@H](NC(=O)c1cn(-c2c(F)cc(F)cc2F)c2nc(N3C[C@@H](O)[C@H](O)C3)ccc2c1=O)C(F)(F)F	3.5 L/kg	13 µg/mL (≈ 24.5 µM)	1.2 ×10⁻⁶ cm/s	1.6 h	25 mL/min/kg	21.7 mL/min/kg	
O=C(N[C@@H](C1CC1)C(F)(F)F)c1cn(-c2c(F)cc(F)cc2F)c2nc(N3C[C@@H](O)[C@H](O)C3)ccc2c1=O	3.7 L/kg	12.5 µg/mL (≈ 23 µM)	12.9 ×10⁻⁶ cm/s	4.6 h	15 mL/min/kg	18.3 mL/min/kg	bioavailability [1]: 19%; fraction unbound [3]: 0.033; efflux ratio at 2 h, 2 µM [4]: 8; fraction unbound [5]: 0.025
CC[C@H](NC(=O)c1cn(-c2c(F)cc(F)cc2F)c2nc(N3C[C@@H](O)CC3=O)ccc2c1=O)C(F)(F)F	3.5 L/kg	0.4 µg/mL (≈ 0.757 µM)	46.2 ×10⁻⁶ cm/s	3.4 h	20 mL/min/kg	16.7 mL/min/kg	bioavailability [1]: 91%; fraction unbound [3]: 0.03; efflux ratio at 2 h, 2 µM [4]: 0.6; fraction unbound [5]: 0.02
O=C(NC12CC3CC(CC(C3)C1)C2)c1cn(-c2ccc(F)cc2F)c2nc(N3CCCC3=O)ccc2c1=O						60 mL/min/kg	
CC[C@H](NC(=O)c1cn(-c2c(F)cccc2F)c2nc(N3C[C@@H](O)CC3=O)ccc2c1=O)C(F)(F)F		1.5 µg/mL (≈ 2.94 µM)				25 mL/min/kg	
CC[C@H](NC(=O)c1cn(-c2c(F)cc(F)cc2F)c2nc(N3CC4CC4(O)C3)ccc2c1=O)C(F)(F)F (mixture of isomers)		< 0.1 µg/mL				56.7 mL/min/kg	
CC(NC(=O)c1cn(-c2c(F)cc(F)cc2F)c2nc(N3C[C@@H](O)[C@H](O)C3)ccc2c1=O)C(F)(F)C(F)(F)F (single isomer, unassigned; diastereomer 1)	2.5 L/kg	54.7 µg/mL (≈ 96.6 µM)	19.3 ×10⁻⁶ cm/s	2.1 h	11.7 mL/min/kg	13.3 mL/min/kg	bioavailability [1]: 21%
O=C(Nc1c(Cl)cccc1Cl)c1cn(-c2ccc(F)cc2F)c2nc(N3C[C@@H](O)CC3=O)ccc2c1=O						26.7 mL/min/kg	
CCC(NC(=O)c1cn(-c2c(F)cc(F)cc2F)c2nc(N3C[C@@H](O)[C@H](O)C3)c(F)cc2c1=O)C(F)(F)C(F)(F)F (single isomer, unassigned; diastereomer 1)	3 L/kg	11.2 µg/mL (≈ 18.7 µM)	11.3 ×10⁻⁶ cm/s	1.8 h	23.3 mL/min/kg	20 mL/min/kg	bioavailability [1]: 48%; half-life [13]: 4.2 h; fraction unbound [5]: 0.006; Tmax [14]: 6 h
CC[C@@H](NC(=O)c1cn(-c2c(Cl)cccc2Cl)c2nc(N3C[C@@H](O)CC3=O)ccc2c1=O)C(F)(F)F						43.3 mL/min/kg	
CC[C@@H](NC(=O)c1cn(-c2c(F)cc(F)cc2F)c2nc(N3C[C@@H](O)CC3=O)ccc2c1=O)C(F)(F)F	2.3 L/kg	2.2 µg/mL (≈ 4.16 µM)	43.4 ×10⁻⁶ cm/s	0.9 h	56.7 mL/min/kg	31.7 mL/min/kg	efflux ratio at 2 h, 2 µM [4]: 0.6
CC[C@@H](NC(=O)c1cn(-c2ccccc2F)c2nc(N3C[C@@H](O)CC3=O)ccc2c1=O)C(F)(F)F		1.1 µg/mL (≈ 2.23 µM)				31.7 mL/min/kg	
